Converted amounts (≈) assume the structure as drawn. Read-outs that look alike come from different tables or passages of the source. Non-standard residues stand in square brackets, D forms with d. Residues, ends and D or L forms follow the SMILES beside them. *: point of attachment. Lys(Me) = CNCCCC[C@H](N)C(=O)O; Octanoyl = CCCCCCCC(=O)*
Columns and labels:
[1] = tested on: E. cloacae 118564; test: microbe, parasite or virus in culture; assay type: cell-based, Enterobacter cloacae; conditions: 118564, 18 h
Summary of the method: (§1)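 Turbidity at 590 nm defined growth, from which the MIC was taken. Cultures at a final density of 5 × 10^5 CFU/mL were exposed to a range of compound levels at 37 °C for 18 h in a CLSI-based microdilution format.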

[2] = tested on: E. cloacae 118564; assay type: cell-based, Enterobacter cloacae; conditions: for MICUTBLP: UTBLP alone
Summary of the method: (§2)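 Values derive from a two-agent checkerboard with an 18 h, 37 °C incubation. FICI cut-offs: ≤0.5 synergy, 0.5–4 additive, >4 antagonism.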

[3] = tested on: A. baumannii ATCC 17978; assay type: cell-based, Acinetobacter baumannii; conditions: for MICUTBLP: UTBLP alone
Summary of the method: as §2

[4] = tested on: A. baumannii 92247; assay type: cell-based, Acinetobacter baumannii; conditions: for MICUTBLP: UTBLP alone
Summary of the method: as §2

[5] = tested on: A. baumannii AB027; assay type: cell-based, Acinetobacter baumannii; conditions: for MICUTBLP: UTBLP alone
Summary of the method: as §2

[6] = tested on: P. aeruginosa PAO1; assay type: cell-based, Pseudomonas aeruginosa; conditions: PAO1, 18 h
Experimental: (§3) The in vitro antibacterial activity of the UTBLPs was assessed against wild-type and clinically isolated bacterial strains. To obtain the MIC of the compounds, the microbroth dilution susceptibility assay was performed according to the Clinical and Laboratory Standards Institute (CLSI, Wayne, PA, USA) guidelines and as previously described. Briefly, the compounds at varying concentrations were incubated with bacterial inoculum (5 × 10^5 CFU/mL final concentration) at 37 °C for 18 h. Growth in the form of turbidity was confirmed using an EMax Plus microplate reader (Molecular Devices, San Jose, CA, USA) at 590 nm.

[7] = tested on: E. faecalis ATCC 29212; assay type: cell-based, Enterococcus faecalis
Summary of the method: as §2

[8] = tested on: A. baumannii ATCC 17978; assay type: cell-based, Acinetobacter baumannii; conditions: ATCC 17978, 18 h
Experimental: as §3

[9] = tested on: MRSA ATCC 33592; assay type: cell-based, Staphylococcus aureus
Summary of the method: as §2

[10] = tested on: S. aureus ATCC 29213; assay type: cell-based, Staphylococcus aureus
Summary of the method: as §2

[11] = tested on: K. pneumoniae 113250; assay type: cell-based, Klebsiella pneumoniae; conditions: for MICUTBLP: UTBLP alone
Summary of the method: as §2

[12] = tested on: E. faecium ATCC 27270; assay type: cell-based, Enterococcus faecium; conditions: ATCC 27270, 18 h
Experimental: as §3

[13] = tested on: A. baumannii AB92247; test: microbe, parasite or virus in culture; assay type: cell-based, Acinetobacter baumannii; conditions: AB92247, 18 h
Summary of the method: as §1

[14] = tested on: A. baumannii AB027; test: microbe, parasite or virus in culture; assay type: cell-based, Acinetobacter baumannii; conditions: AB027, 18 h
Summary of the method: as §1

[15] = tested on: E. coli ATCC 25922; assay type: cell-based, Escherichia coli; conditions: ATCC 25922, 18 h
Experimental: as §3

[16] = tested on: MRSE 61589; assay type: cell-based, Staphylococcus epidermidis; conditions: 61589, 18 h
Experimental: as §3

[17] = tested on: MSSE 81388; assay type: cell-based, Staphylococcus epidermidis; conditions: 18 h
Experimental: as §3

[18] = tested on: K. pneumoniae 113250; test: microbe, parasite or virus in culture; assay type: cell-based, Klebsiella pneumoniae; conditions: 113250, 18 h
Summary of the method: as §1

[19] = tested on: MRSE 61589; assay type: cell-based, Staphylococcus epidermidis
Summary of the method: as §2

[20] = tested on: MSSE 81388; assay type: cell-based, Staphylococcus epidermidis
Summary of the method: as §2

[21] = UTBLP in combination with novobiocin
[22] = UTBLP in combination with rifampicin
[23] = novobiocin in combination with the UTBLP
[24] = rifampicin in combination with the UTBLP
[25] = UTBLP in combination with chloramphenicol
[26] = chloramphenicol in combination with the UTBLP
[27] = UTBLP alone, plate with chloramphenicol

MIC [1]: > 128 µg/mL | MICUTBLP ([2]; plate with novobiocin): > 128 µg/mL | MICUTBLP ([2]; plate with rifampicin): > 128 µg/mL | MICUTBLP [MICcombo] [2, 21]: 16 µg/mL | MICUTBLP [MICcombo] [2, 22]: 16 µg/mL | MICantibiotic [MICcombo] [2, 23]: 1 µg/mL | MICantibiotic [MICcombo] [2, 24]: 0.5 µg/mL | MICUTBLP ([3]; plate with chloramphenicol): 64 µg/mL | MICUTBLP ([3]; plate with niclosamide): 64 µg/mL | MICUTBLP ([3]; plate with novobiocin): 64 µg/mL | MICUTBLP ([3]; plate with rifampicin): 64 µg/mL | MICUTBLP [MICcombo] [3, 25]: 8 µg/mL | MICUTBLP [MICcombo] ([3]; UTBLP in combination with niclosamide): 1 µg/mL | MICUTBLP [MICcombo] [3, 21]: 4 µg/mL | MICUTBLP [MICcombo] [3, 22]: 2 µg/mL | MICantibiotic [MICcombo] [3, 26]: 32 µg/mL | MICantibiotic [MICcombo] ([3]; niclosamide in combination with the UTBLP): 4 µg/mL | MICantibiotic [MICcombo] [3, 23]: 0.25 µg/mL | MICantibiotic [MICcombo] [3, 24]: 0.031 µg/mL | MICUTBLP ([4]; plate with novobiocin): 32 µg/mL | MICUTBLP ([4]; plate with rifampicin): 32 µg/mL | MICUTBLP [MICcombo] [4, 21]: 1 µg/mL | MICUTBLP [MICcombo] [4, 22]: 0.5 µg/mL | MICantibiotic [MICcombo] [4, 23]: 0.125 µg/mL | MICantibiotic [MICcombo] [4, 24]: 0.063 µg/mL | MICUTBLP ([5]; plate with novobiocin): > 128 µg/mL | MICUTBLP ([5]; plate with rifampicin): > 128 µg/mL | MICUTBLP [MICcombo] [5, 21]: 16 µg/mL | MICUTBLP [MICcombo] [5, 22]: 16 µg/mL | MICantibiotic [MICcombo] [5, 23]: 0.031 µg/mL | MICantibiotic [MICcombo] [5, 24]: 0.002 µg/mL | MIC [6]: >128 µg/mL | MICUTBLP [7, 27]: 32 µg/mL | MICUTBLP [MICcombo] [7, 25]: 4 µg/mL | MICchloramphenicol [MICcombo] [7, 26]: 4 µg/mL | MIC [8]: 64 µg/mL (≈ 66.2 µM) | MICUTBLP [9, 27]: > 128 µg/mL | MICUTBLP [MICcombo] [9, 25]: 0.25 µg/mL | MICchloramphenicol [MICcombo] [9, 26]: 64 µg/mL | MICUTBLP [10, 27]: 128 µg/mL | MICUTBLP [MICcombo] [10, 25]: 16 µg/mL | MICchloramphenicol [MICcombo] [10, 26]: 4 µg/mL | MICUTBLP ([11]; plate with novobiocin): > 128 µg/mL | MICUTBLP ([11]; plate with rifampicin): > 128 µg/mL | MICUTBLP [MICcombo] [11, 21]: 16 µg/mL | MICUTBLP [MICcombo] [11, 22]: 16 µg/mL | MICantibiotic [MICcombo] [11, 23]: 2 µg/mL | MICantibiotic [MICcombo] [11, 24]: 1 µg/mL | MIC [12]: 64 µg/mL (≈ 66.2 µM) | MIC [13]: 32 µg/mL (≈ 33.1 µM) | MIC [14]: > 128 µg/mL | MIC [15]: 32 µg/mL (≈ 33.1 µM) | MIC [16]: 16 µg/mL (≈ 16.6 µM) | MIC [17]: 16 µg/mL (≈ 16.6 µM) | MIC [18]: > 128 µg/mL | MICUTBLP [19, 27]: 16 µg/mL | MICUTBLP [MICcombo] [19, 25]: 8 µg/mL | MICchloramphenicol [MICcombo] [19, 26]: 4 µg/mL | MICUTBLP [20, 27]: 16 µg/mL | MICUTBLP [MICcombo] [20, 25]: 0.25 µg/mL | MICchloramphenicol [MICcombo] [20, 26]: 4 µg/mL
SMILES: CCCCCCCC(=O)NCCCC[C@H](NC(=O)CCCCCCC)C(=O)N[C@@H](CCCCNC)C(=O)N[C@@H](CCCCNC)C(=O)N[C@@H](CCCCNC)C(=O)N[C@@H](CCCCNC)C(N)=O [UTBLP 6] (Octanoyl-K(Octanoyl)[Lys(Me)][Lys(Me)][Lys(Me)][Lys(Me)]-NH2)
Interpretation ([2]; UTBLP + novobiocin): Synergy (FICI ≤ 0.5 is synergistic) | Interpretation ([2]; UTBLP + rifampicin): Synergy (FICI ≤ 0.5 is synergistic) | Interpretation ([3]; UTBLP + chloramphenicol): Additive (0.5 < x ≤ 4 is additive) | Interpretation ([3]; UTBLP + niclosamide): Synergy (FICI ≤ 0.5 is synergistic) | Interpretation ([3]; UTBLP + novobiocin): Synergy (FICI ≤ 0.5 is synergistic) | Interpretation ([3]; UTBLP + rifampicin): Synergy (FICI ≤ 0.5 is synergistic) | Interpretation ([4]; UTBLP + novobiocin): Synergy (FICI ≤ 0.5 is synergistic) | Interpretation ([4]; UTBLP + rifampicin): Synergy (FICI ≤ 0.5 is synergistic) | Interpretation ([5]; UTBLP + novobiocin): Synergy (FICI ≤ 0.5 is synergistic) | Interpretation ([5]; UTBLP + rifampicin): Synergy (FICI ≤ 0.5 is synergistic) | Interpretation ([7]; UTBLP + chloramphenicol): Additive (0.5 < x ≤ 4 is additive) | Interpretation ([9]; UTBLP + chloramphenicol): Additive (0.5 < x ≤ 4 is additive) | Interpretation ([11]; UTBLP + novobiocin): Synergy (FICI ≤ 0.5 is synergistic) | Interpretation ([11]; UTBLP + rifampicin): Synergy (FICI ≤ 0.5 is synergistic) | Interpretation ([19]; UTBLP + chloramphenicol): Additive (0.5 < x ≤ 4 is additive) | Interpretation ([20]; UTBLP + chloramphenicol): Additive (0.5 < x ≤ 4 is additive)
